Experimental data taken from US20070149404A1, “Microbicidal compositions” (BASF AKTIENGESELLSCHAFT, priority 2003, published 2007).
Where a name gives a salt, the structure may show the parent alone.

How the values were obtained:
Pseudomonas aeruginosa = test: Intrinsic activity, microtitre plate method, PA; assay type: cell-based; set-up: key: rating 0 = no activity to 5 = biostatic, may be biocide
Experimental: (§1) The chemistries were tested for their activity against a range of organisms via a microtitre plate method. The test organisms were: • ML—Micrococcus luteus • SA—Staphylococcus aureus • EC—Escherichia coli • PA—Pseudomonas aeruginosa • CF—Citrobacter freundii • PM—Proteus mirabilis • CA—Candida albicans • SC—Saccharomyces cerevisiae • AN—Aspergillus niger • PF—Penicillium funiculosum • AA—Alternaria alternata
(§2) Using the following rating scale: • 0=no activity • 1=minimal inhibition • 2=inhibition • 3=clear inhibition • 4=clear inhibition biostatic, may be biocide activity • 5=biostatic, may be biocide activity
(§3) Readings of 4 and possibly 3 were considered to be valid for biocidal applications.

Penicillium funiculosum = test: Intrinsic activity, microtitre plate method, PF; assay type: cell-based; set-up: key: rating 0 = no activity to 5 = biostatic, may be biocide
Experimental: as §1, §2, §3

Staphylococcus aureus = test: Intrinsic activity, microtitre plate method, SA; assay type: cell-based; set-up: key: 0 = no activity to 5 = biostatic, may be biocide activity
Experimental: as §1, §2, §3

Saccharomyces cerevisiae = test: Intrinsic activity, microtitre plate method, SC; assay type: cell-based; set-up: key: rating 0 = no activity to 5 = biostatic, may be biocide
Experimental: as §1, §2, §3

Bacteria = test: Intrinsic activity, microtitre plate method, mean score over bacteria; assay type: cell-based, ML, SA, EC, PA, CF, PM; conditions: performance against organisms/no of organisms, 0 to <3 poor, >3 inhibition, >4 biostasis, biocidal activity
Experimental: as §1, §2, §3

test bacteria and fungi = test: Intrinsic activity against bacteria and fungi, microtitre plate method, summary in words; assay type: cell-based; conditions: for Activity against the test bacteria and fungi: 1000 and 500 ppm a.i.; for Spectrum of activity: at both concentrations (1000 and 500 ppm a.i.)
Experimental: as §1, §2, §3

Micrococcus luteus = test: Intrinsic activity, microtitre plate method, ML; assay type: cell-based; set-up: key: rating 0 = no activity to 5 = biostatic, may be biocide
Experimental: as §1, §2, §3

Fungi [1] = test: Intrinsic activity, microtitre plate method, mean score over fungi; assay type: cell-based, CA, SC, AN, PF, AA; conditions: performance against organisms/no of organisms, 0 to <3 poor, >3 inhibition, >4 biostasis, biocidal activity
Experimental: as §1, §2, §3

Candida albicans = test: Intrinsic activity, microtitre plate method, CA; assay type: cell-based; set-up: key: rating 0 = no activity to 5 = biostatic, may be biocide
Experimental: as §1, §2, §3

Aspergillus niger = test: Intrinsic activity, microtitre plate method, AN; assay type: cell-based; set-up: key: rating 0 = no activity to 5 = biostatic, may be biocide
Experimental: as §1, §2, §3

Citrobacter freundii = test: Intrinsic activity, microtitre plate method, CF; assay type: cell-based; set-up: key: rating 0 = no activity to 5 = biostatic, may be biocide
Experimental: as §1, §2, §3

Proteus mirabilis = test: Intrinsic activity, microtitre plate method, PM; assay type: cell-based; set-up: key: rating 0 = no activity to 5 = biostatic, may be biocide
Experimental: as §1, §2, §3

Escherichia coli = test: Intrinsic activity, microtitre plate method, EC; assay type: cell-based; set-up: key: rating 0 = no activity to 5 = biostatic, may be biocide
Experimental: as §1, §2, §3

Alternaria alternata = test: Intrinsic activity, microtitre plate method, AA; assay type: cell-based; set-up: key: rating 0 = no activity to 5 = biostatic, may be biocide
Experimental: as §1, §2, §3

fungi [2] = test: Efficacy against fungal growth on painted wooden surface (BS3900 G6); assay type: cell-based; conditions: 0.5% in paint
Experimental: (§4) Testing was performed according to the BS3900 G6 and BBA MOAT 33 methods for evaluation versus fungi and algae, respectively. The methods involve painting a substrate panel with the coating and leaching under running water for 72 hours. The substrates are incubated for 56 days after being inoculated with fungi or algae. Performance is judged by comparing with suitable control samples ie without biocide, a positive control and for fungi with substrate panels that have not been leached.
(§5) Performance rating on painted test substrates (Score of 0, 1 and 2 is considered as a pass) • 0=no growth • 1=trace of growth • 2=growth on 1-10% of test face • 3=growth on 10-30% of test face • 4=growth on 30-70% of test face
(§6) 5=growth on 70-100% of test face.

algae = test: Efficacy against algal growth on painted plaster surface (BBA MOAT 33); assay type: cell-based; conditions: 0.5% in paint; for MEAN ALGAL GROWTH RATING 28 days / MEAN ALGAL GROWTH RATING 56 days / % Improved after 56 days (algal growth): painted plaster; for MEAN ALGAL GROWTH RATING 28 days / MEAN ALGAL GROWTH RATING 56 days: leached 72 hours, mean of ratings 0-5; for MEAN ALGAL GROWTH RATING 28 days: 28 days after inoculation; for MEAN ALGAL GROWTH RATING 56 days: 56 days after inoculation; for % Improved after 56 days (algal growth): versus unpreserved paint
Experimental: as §4, §5, §6

fungi [3] = test: Efficacy against fungal growth on painted plaster surface (BS3900 G6); assay type: cell-based; conditions: 0.5% in paint
Experimental: as §4, with “The substrates are incubated for 56 days after being inoculated with fungi or algae.” left out
as §5, §6

[4] = constant running water for 72 hours, 28 days, mean of ratings 0-5
[5] = constant running water for 72 hours, 56 days, mean of ratings 0-5
[6] = leached 72 hours, versus unpreserved paint
[7] = no leaching with water, 28 days, mean of ratings 0-5
[8] = no leaching with water, 56 days, mean of ratings 0-5

Compound | PA rating (Pseudomonas aeruginosa; 500 ppm a.i.) | PA rating (Pseudomonas aeruginosa; 1000 ppm a.i.) | PF rating (Penicillium funiculosum; 500 ppm a.i.) | PF rating (Penicillium funiculosum; 1000 ppm a.i.) | SA rating (Staphylococcus aureus; 500 ppm a.i.) | SA rating (Staphylococcus aureus; 1000 ppm a.i.) | SC rating (Saccharomyces cerevisiae; 500 ppm a.i.) | SC rating (Saccharomyces cerevisiae; 1000 ppm a.i.) | Bacteria Mean Score (Bacteria; 500 ppm a.i.) | Bacteria Mean Score (Bacteria; 1000 ppm a.i.) | ML rating (Micrococcus luteus; 500 ppm a.i.) | ML rating (Micrococcus luteus; 1000 ppm a.i.) | Fungi Mean Score (Fungi [1]; 500 ppm a.i.) | Fungi Mean Score (Fungi [1]; 1000 ppm a.i.) | CA rating (Candida albicans; 500 ppm a.i.) | CA rating (Candida albicans; 1000 ppm a.i.) | AN rating (Aspergillus niger; 500 ppm a.i.) | AN rating (Aspergillus niger; 1000 ppm a.i.) | CF rating (Citrobacter freundii; 500 ppm a.i.) | CF rating (Citrobacter freundii; 1000 ppm a.i.) | further results
CCCCCCCCCCCCNC(=N)N [Dodine, 1-dodecylguanidinium hydrochloride or—acetate] | 1 | 3 | 5 | 5 | 5 | 5 | 5 | 5 | 4.3 | 4.7 | 5 | 5 | 5.0 | 5.0 | 5 | 5 | 5 | 5 | 5 | 5 | Activity against the test bacteria and fungi (test bacteria and fungi): good activity; PM rating (Proteus mirabilis; 500 ppm a.i.): 5; PM rating (Proteus mirabilis; 1000 ppm a.i.): 5; EC rating (Escherichia coli; 500 ppm a.i.): 5; EC rating (Escherichia coli; 1000 ppm a.i.): 5; AA rating (Alternaria alternata; 500 ppm a.i.): 5; AA rating (Alternaria alternata; 1000 ppm a.i.): 5
CCOCn1c(-c2ccc(Cl)cc2)c(C#N)c(Br)c1C(F)(F)F [Chlorfenapyr, 4-Brom-2-(p-chlorphenyl)-1-(ethoxymethyl)-5-(tri-fluormethyl)-pyrrole-3-carbonitril] | – | – | – | – | – | – | – | – | – | – | – | – | – | – | – | – | – | – | – | – | Improvement against fungal growth on the wood surface (fungi [2]): exhibited an improvement; MEAN FUNGAL GROWTH RATING - WOOD SUBSTRATE 28 days leached (fungi [2]; [4]): 3 (3=growth on 10-30% of test face); MEAN FUNGAL GROWTH RATING - WOOD SUBSTRATE 56 days leached (fungi [2]; [5]): 3.5; % Improved After 56 days leached (fungal, wood) (fungi [2]; [6]): 12.5%; MEAN FUNGAL GROWTH RATING - WOOD SUBSTRATE 28 days as applied (fungi [2]; [7]): 5 (5=growth on 70-100% of test face); MEAN FUNGAL GROWTH RATING - WOOD SUBSTRATE 56 days as applied (fungi [2]; [8]): 5 (5=growth on 70-100% of test face); MEAN ALGAL GROWTH RATING 28 days (algae): 3 (3=growth on 10-30% of test face); MEAN ALGAL GROWTH RATING 56 days (algae): 3.5; % Improved after 56 days (algal growth) (algae): 12.5%; Improvement against algal growth on the plaster surface (algae): exhibited an improvement
Fc1ccc([C@@]2(Cn3cncn3)O[C@H]2c2ccccc2Cl)cc1 [Epoxiconazole, cis-3-(2-Chlorphenyl)-2-(4-fluorphenyl)-2-(triazol-1-ylmethyl)-oxiran] | 0 | 0 | 3 | 3 | 0 | 0 | 5 | 5 | 0.0 | 0.0 | 0 | 0 | 4.6 | 4.6 | 5 | 5 | 5 | 5 | 0 | 0 | Improvement against fungal growth on the wood surface (fungi [2]): only showed marginal improvement; MEAN ALGAL GROWTH RATING 28 days (algae): 2.5; MEAN ALGAL GROWTH RATING 56 days (algae): 2.5; % Improved after 56 days (algal growth) (algae): 37.5%; Improvement against algal growth on the plaster surface (algae): exhibited an improvement; Spectrum of activity (test bacteria and fungi): only display antifungal activity; Improvement against fungal growth on the plaster surface (fungi [3]; as applied or after leaching): exhibited an improvement; MEAN FUNGAL GROWTH RATING - PLASTER SUBSTRATE 28 days leached (fungi [3]; [4]): 1.5; MEAN FUNGAL GROWTH RATING - PLASTER SUBSTRATE 56 days leached (fungi [3]; [5]): 2.5; % Improved After 56 days leached (fungal, plaster) (fungi [3]; [6]): 29%; MEAN FUNGAL GROWTH RATING - PLASTER SUBSTRATE 28 days as applied (fungi [3]; [7]): 3.5; MEAN FUNGAL GROWTH RATING - PLASTER SUBSTRATE 56 days as applied (fungi [3]; [8]): 3.5; % Improved After 56 days as applied (fungal, plaster) (fungi [3]; no leaching, versus unpreserved paint): 30%; PM rating (Proteus mirabilis; 500 ppm a.i.): 0; PM rating (Proteus mirabilis; 1000 ppm a.i.): 0; EC rating (Escherichia coli; 500 ppm a.i.): 0; EC rating (Escherichia coli; 1000 ppm a.i.): 0; AA rating (Alternaria alternata; 500 ppm a.i.): 5; AA rating (Alternaria alternata; 1000 ppm a.i.): 5
CC(Oc1ccc(Cl)cc1Cl)C(=O)O (stereo not shown) [Dichlorprop, 2,4-Dichlorophenoxy-propionic acid] | 3 | 5 | 5 | 5 | 3 | 5 | 1 | 5 | 3.3 | 5.0 | 5 | 5 | 3.6 | 5.0 | 2 | 5 | 5 | 5 | 3 | 5 | Activity against the test bacteria and fungi (test bacteria and fungi): good activity; PM rating (Proteus mirabilis; 500 ppm a.i.): 3; PM rating (Proteus mirabilis; 1000 ppm a.i.): 5; EC rating (Escherichia coli; 500 ppm a.i.): 3; EC rating (Escherichia coli; 1000 ppm a.i.): 5; AA rating (Alternaria alternata; 500 ppm a.i.): 5; AA rating (Alternaria alternata; 1000 ppm a.i.): 5
(1RS, 5RS;1RS, 5SR)-5- (4-chlorobenzyl)-2,2-di- methyl-1-(1H-1,2,4-tri- azol-1-ylmethyl)cyclo- pentanol [Metconazole] | 0 | 0 | 5 | 5 | 1 | 1 | 3 | 3 | 0.5 | 0.7 | 2 | 3 | 4.2 | 4.2 | 3 | 3 | 5 | 5 | 0 | 0 | Spectrum of activity (test bacteria and fungi): only display antifungal activity; PM rating (Proteus mirabilis; 500 ppm a.i.): 0; PM rating (Proteus mirabilis; 1000 ppm a.i.): 0; EC rating (Escherichia coli; 500 ppm a.i.): 0; EC rating (Escherichia coli; 1000 ppm a.i.): 0; AA rating (Alternaria alternata; 500 ppm a.i.): 5; AA rating (Alternaria alternata; 1000 ppm a.i.): 5
